Patent publication US20100285140A1, “ANTIMICROBIAL AGENT FOR GRAM-POSITIVE BACTERIA” (priority 2007, published 2010)
Converted amounts (≈) assume the structure as drawn.

Tests used:
Assay in all cases: broth microdilution MIC/MBC
Assay type in all cases: cell-based
[1] = system: MRSA clinical isolate 2022 blaZ(−); settings: Staphylococcus aureus, ABPC
[2] = system: MRSA clinical isolate 1801 blaZ(−); settings: Staphylococcus aureus, ABPC
MSSA JCM2874 = settings: Staphylococcus aureus, ABPC
MRSA N315 = settings: Staphylococcus aureus, ABPC
MSSA ATCC6538 = settings: Staphylococcus aureus, ABPC
VSE5804 = settings: Enterococcus, ABPC
Experimental: Ampicillin (ABPC) was used as a positive control. The measurement was carried out in accordance with a broth microdilution method (NCCLS). […] These serial dilutions were placed in a 96-well plate, and a bacterial strain was added to each well at an amount of 10^5 CFU/ml, followed by incubation at 35° C. for 18 hours. In the case where turbidity was visually observed, it was judged that the bacterial strain grew. The lowest concentration at which the bacterial growth was not observed was defined as MIC. A solution was collected from the well in which bacterial growth was not observed, added to an antibiotic-free medium, and then incubated at 35° C. for 18 hours, followed by visually observing existence of turbidity. The lowest concentration at which turbidity was not observed was defined as MBC. Values in the tables are: ABPC, μg/ml; polymer particles, mg/ml. Numbers in the parentheses indicate the dilution factor.

[3] = system: MRSA clinical isolate 2526 blaZ(+); settings: Staphylococcus aureus, ABPC
[4] = system: MRSA clinical isolate 2005 blaZ(+); settings: Staphylococcus aureus, ABPC
MRSA JCM8703 = settings: Staphylococcus aureus, ABPC
VRE GTC02000 = settings: Enterococcus, ABPC

MIC [1]: 16 µg/mL (≈ 45.8 µM)
MIC [2]: 16 µg/mL (≈ 45.8 µM)
MIC (MSSA JCM2874): 2 µg/mL (≈ 5.72 µM)
MIC (MSSA ATCC6538): 0.063 µg/mL (≈ 0.18 µM)
MIC (VSE5804): 0.5 µg/mL (≈ 1.43 µM)
MIC [3]: 64 µg/mL (≈ 183 µM)
MIC [4]: 64 µg/mL (≈ 183 µM)
MIC (MRSA JCM8703): 64 µg/mL (≈ 183 µM)
MIC (VRE GTC02000): 1 µg/mL (≈ 2.86 µM)
SMILES: CC1(C)S[C@@H]2[C@H](NC(=O)[C@H](N)c3ccccc3)C(=O)N2[C@H]1C(=O)O [ABPC, Ampicillin]
MBC [1]: 16 µg/mL (≈ 45.8 µM)
MBC [2]: 16 µg/mL (≈ 45.8 µM)
MBC (MSSA JCM2874): 2 µg/mL (≈ 5.72 µM)
MBC (MRSA N315): 32 µg/mL (≈ 91.6 µM)
MBC (MSSA ATCC6538): 0.063 µg/mL (≈ 0.18 µM)
MBC (VSE5804): 0.5 µg/mL (≈ 1.43 µM)
MBC [3]: 64 µg/mL (≈ 183 µM)
MBC [4]: 64 µg/mL (≈ 183 µM)
MBC (MRSA JCM8703): 64 µg/mL (≈ 183 µM)
MBC (VRE GTC02000): 1 µg/mL (≈ 2.86 µM)
